Our source for the IC50 and Ki values is ChEMBL document CHEMBL1909046, “DrugMatrix in vitro pharmacology data”.

Test [1] deals with Beta-3 adrenergic receptor (Homo sapiens, UniProt P13945). As to the kind of experiment: DRUGMATRIX: Adrenergic beta3 radioligand binding (ligand: [125I] Cyanopindolol). The following applies: hek293; Not Active = under 50% inhibition at 10 µM. Type of test: cell membranes, Membrane.
A short description of test [2]: DRUGMATRIX: ATPase, Na+/K+ enzyme inhibition (substrate: ATP). Type of test: tissue-based, Sus scrofa, Heart. Particulars: Not Active = under 50% inhibition at 10 µM.
Test [3] can be described thus: DRUGMATRIX: Atrial Natriuretic Factor (ANF) radioligand binding (ligand: [125I] ANF (rat)). Type of test: cell membranes, Cavia porcellus, Dunkin-Hartley, Adrenal gland, Membrane. The following applies: Not Active = under 50% inhibition at 10 µM.
The next test concerns the target T1, Substance-K receptor (Homo sapiens, UniProt P21452). Note: in other assays of this panel Not Active means under 50% inhibition at 10 µM.
T1 sequence (P21452 whole entry): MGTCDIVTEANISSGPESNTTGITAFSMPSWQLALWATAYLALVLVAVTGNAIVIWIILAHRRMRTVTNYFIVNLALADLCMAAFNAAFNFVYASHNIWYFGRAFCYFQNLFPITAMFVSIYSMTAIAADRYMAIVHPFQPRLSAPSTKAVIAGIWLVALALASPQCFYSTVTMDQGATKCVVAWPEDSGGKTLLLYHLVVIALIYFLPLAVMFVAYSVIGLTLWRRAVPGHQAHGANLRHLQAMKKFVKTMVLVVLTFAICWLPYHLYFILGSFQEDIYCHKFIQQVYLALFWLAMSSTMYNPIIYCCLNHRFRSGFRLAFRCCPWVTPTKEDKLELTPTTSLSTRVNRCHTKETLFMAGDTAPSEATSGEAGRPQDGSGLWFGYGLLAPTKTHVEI
Type of test: cell membranes, CHO, Membrane.

The target in test [4] is T2, Vasoactive intestinal polypeptide receptor 1 (Homo sapiens, UniProt P32241). Note: in other assays of this panel Not Active means under 50% inhibition at 10 µM.
T2 sequence (P32241 whole entry): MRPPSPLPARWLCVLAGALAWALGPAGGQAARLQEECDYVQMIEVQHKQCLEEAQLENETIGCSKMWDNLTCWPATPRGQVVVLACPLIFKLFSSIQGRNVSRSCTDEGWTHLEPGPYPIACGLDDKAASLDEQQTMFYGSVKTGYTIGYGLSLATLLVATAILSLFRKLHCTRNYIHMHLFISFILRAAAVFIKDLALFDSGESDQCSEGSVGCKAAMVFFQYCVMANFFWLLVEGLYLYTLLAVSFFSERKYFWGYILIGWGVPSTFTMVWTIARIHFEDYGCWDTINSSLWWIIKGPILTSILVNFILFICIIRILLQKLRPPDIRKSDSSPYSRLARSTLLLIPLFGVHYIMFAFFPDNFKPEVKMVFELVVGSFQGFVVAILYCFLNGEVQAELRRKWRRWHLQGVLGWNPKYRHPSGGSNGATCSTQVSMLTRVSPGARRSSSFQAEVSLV
Type of test: cell membranes, Membrane. Particulars: ht-29.

Test [5] in a line: DRUGMATRIX: Calcium Channel Type L, Phenylalkylamine radioligand binding (ligand: [3H] (-)-Desmethoxyverapamil (D-888)). Type of test: cell membranes, Rattus norvegicus, Wistar, Brain, Membrane. The following applies: Not Active = under 50% inhibition at 10 µM.
Test [6] in a line: DRUGMATRIX: Glutamate, Kainate radioligand binding (ligand: [3H] Kainic acid). Type of test: cell membranes, Rattus norvegicus, Wistar, Brain, Membrane. The following applies: Not Active = under 50% inhibition at 10 µM.
For test [7], the target named is T3, Cysteinyl leukotriene receptor 1 (Homo sapiens, UniProt Q9Y271). Note: in other assays of this panel Not Active means under 50% inhibition at 10 µM.
T3 sequence (Q9Y271 whole entry): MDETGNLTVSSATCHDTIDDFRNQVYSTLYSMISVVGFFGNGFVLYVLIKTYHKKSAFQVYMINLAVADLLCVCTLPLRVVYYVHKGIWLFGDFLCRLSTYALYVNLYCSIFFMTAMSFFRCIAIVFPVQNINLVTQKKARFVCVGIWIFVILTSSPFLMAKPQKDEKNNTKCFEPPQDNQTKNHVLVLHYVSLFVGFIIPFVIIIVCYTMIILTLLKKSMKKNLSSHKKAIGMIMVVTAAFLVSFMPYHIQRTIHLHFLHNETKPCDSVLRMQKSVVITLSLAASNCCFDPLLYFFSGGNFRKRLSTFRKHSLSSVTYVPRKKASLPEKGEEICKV
Type of test: cell membranes, CHO-K1, Membrane. Particulars: cho-k1.

For test [8], the target named is T4, Receptor-type tyrosine-protein phosphatase C (Homo sapiens, UniProt P08575).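 Note: inhibition of CD45 enzyme activity measured using DiFMUP as substrate; in other assays of this panel Not Active means under 50% inhibition at 10 µM.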
T4 sequence (P08575 whole entry): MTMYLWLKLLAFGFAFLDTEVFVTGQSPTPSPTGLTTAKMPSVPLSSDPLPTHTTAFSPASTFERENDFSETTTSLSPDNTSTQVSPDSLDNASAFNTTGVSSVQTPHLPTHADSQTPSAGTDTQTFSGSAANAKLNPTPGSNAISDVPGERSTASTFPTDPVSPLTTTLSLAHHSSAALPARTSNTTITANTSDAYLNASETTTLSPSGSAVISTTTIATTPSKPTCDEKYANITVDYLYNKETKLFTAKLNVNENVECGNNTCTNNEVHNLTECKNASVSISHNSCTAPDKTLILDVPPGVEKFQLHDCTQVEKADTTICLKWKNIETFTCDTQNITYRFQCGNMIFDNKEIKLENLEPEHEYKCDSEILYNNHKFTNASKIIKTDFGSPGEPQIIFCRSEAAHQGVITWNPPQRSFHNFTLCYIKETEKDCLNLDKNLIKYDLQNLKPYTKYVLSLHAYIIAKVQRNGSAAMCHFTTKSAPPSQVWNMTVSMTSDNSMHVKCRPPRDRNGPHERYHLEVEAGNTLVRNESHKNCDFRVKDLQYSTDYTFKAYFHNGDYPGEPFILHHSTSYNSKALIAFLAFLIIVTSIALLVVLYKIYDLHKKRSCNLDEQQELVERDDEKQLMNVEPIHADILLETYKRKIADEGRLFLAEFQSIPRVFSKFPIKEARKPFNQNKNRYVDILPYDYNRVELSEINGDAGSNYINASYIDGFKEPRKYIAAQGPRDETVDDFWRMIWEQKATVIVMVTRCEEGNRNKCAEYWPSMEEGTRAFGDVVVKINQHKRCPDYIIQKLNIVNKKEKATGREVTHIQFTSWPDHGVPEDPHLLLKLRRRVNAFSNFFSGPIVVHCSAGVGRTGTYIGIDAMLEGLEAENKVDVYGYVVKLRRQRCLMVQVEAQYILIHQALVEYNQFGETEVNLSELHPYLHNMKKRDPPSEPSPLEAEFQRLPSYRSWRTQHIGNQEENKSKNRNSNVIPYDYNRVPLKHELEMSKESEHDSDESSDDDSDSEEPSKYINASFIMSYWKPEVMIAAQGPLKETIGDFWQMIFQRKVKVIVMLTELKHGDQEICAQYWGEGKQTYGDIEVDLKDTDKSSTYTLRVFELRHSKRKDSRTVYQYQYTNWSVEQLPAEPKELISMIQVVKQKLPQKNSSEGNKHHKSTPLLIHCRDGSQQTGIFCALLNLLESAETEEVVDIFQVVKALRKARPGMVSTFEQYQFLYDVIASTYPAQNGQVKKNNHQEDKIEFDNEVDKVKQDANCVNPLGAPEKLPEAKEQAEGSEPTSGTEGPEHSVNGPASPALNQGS
Details: species or system Escherichia coli.

Chain of Beta-3 adrenergic receptor (P13945 whole entry): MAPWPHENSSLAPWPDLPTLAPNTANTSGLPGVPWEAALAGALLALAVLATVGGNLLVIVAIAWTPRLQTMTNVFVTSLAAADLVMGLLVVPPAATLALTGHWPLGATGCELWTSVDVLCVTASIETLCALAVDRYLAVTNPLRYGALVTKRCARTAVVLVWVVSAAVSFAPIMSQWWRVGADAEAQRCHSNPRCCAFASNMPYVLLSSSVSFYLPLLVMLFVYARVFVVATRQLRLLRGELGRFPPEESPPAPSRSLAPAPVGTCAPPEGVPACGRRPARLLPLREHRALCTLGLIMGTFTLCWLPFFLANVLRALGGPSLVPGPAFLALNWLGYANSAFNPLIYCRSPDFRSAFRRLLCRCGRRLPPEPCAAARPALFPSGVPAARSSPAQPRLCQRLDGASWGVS

For `COCCCOc1ccnc(C[S+]([O-])c2nc3ccccc3[nH]2)c1C` (stereo not drawn) [RABEPRAZOLE], the half-maximal inhibitory concentration (IC50) result (in [1]; in test [2]; in [3]; on Substance-K receptor (cho); in test [4]; in test [5]) was “Not Active” throughout. In addition, the IC50 result in [6], in test [7] and in test [8] was “Not Active” each time. Further, the Ki entry in test [2], in test [3], in [5] and in test [6] was “Not Active” in each case.

Consider `O=C(c1ccc(OCCN2CCCCC2)cc1)c1c(-c2ccc(O)cc2)sc2cc(O)ccc12` [RALOXIFENE], for which the IC50 – broadly, the point on the concentration scale where inhibition reaches its midpoint – was “Not Active” in [1]; “Not Active” in test [2]; “Not Active” in test [3]; 3990 nM at Substance-K receptor (read-out: IC50); “Not Active” in [4]; 148 nM in [5] (read-out: IC50). Moreover, the IC50 result in test [6], in test [7] and in test [8] was “Not Active” throughout. Besides, the inhibition constant (Ki) (in general, a measure of affinity in units of concentration, obtained from inhibition or displacement) in test [2] is “Not Active”; in test [3], “Not Active”; on Substance-K receptor (read-out: Ki), 1330 nM; in test [5] (read-out: Ki), 144 nM; in [6] it was “Not Active”.

As to `CNC(=C[N+](=O)[O-])NCCSCc1ccc(CN(C)C)o1` [RANITIDINE], the IC50 entry (in test [1]; in test [2]; in [3]; on Substance-K receptor (cho); in [4]; in test [5]) was “Not Active” each time. For the same molecule, the concentration for half-maximal inhibition (IC50) result in [6], in test [7] and in test [8] was “Not Active” each time. In addition, the inhibition constant Ki result in test [2], in test [3], in test [5] and in [6] was “Not Active” in each case.

For the molecule `CO[C@H]1/C=C/O[C@@]2(C)Oc3c(C)c(O)c4c(c3C2=O)C2=NC3(CCN(CC(C)C)CC3)NC2=C(NC(=O)/C(C)=C\C=C\[C@H](C)[C@H](O)[C@@H](C)[C@@H](O)[C@@H](C)[C@H](OC(C)=O)[C@@H]1C)C4=O` [RIFABUTIN], the IC50 result (in [1]; in test [2]; in test [3]; at Substance-K receptor (cho); in test [4]; in test [5]) was “Not Active” each time. Moreover, the IC50 entry in test [6], in test [7] and in [8] was “Not Active” throughout. Further, the Ki result in test [2], in [3], in test [5] and in test [6] was “Not Active” throughout.

Take `CC(C)CC(N(C)C)C1(c2ccc(Cl)cc2)CCC1` (stereo not drawn) [SIBUTRAMINE]: the half-maximal inhibitory concentration (IC50) entry is “Not Active” in test [1]; “Not Active” in [2]; “Not Active” in test [3]; “Not Active” on Substance-K receptor (cho); “Not Active” in [4]; 2720 nM in test [5] (read-out: IC50). Further, the IC50 result in test [6], in test [7] and in test [8] was “Not Active” throughout. Moreover, the Ki result is “Not Active” in test [2], “Not Active” in [3], 2650 nM in test [5] (read-out: Ki) and “Not Active” in test [6].

Consider `[H]/N=C(/N)N[C@H]1[C@H](O)[C@@H](O)[C@H](O[C@@H]2O[C@@H](C)[C@](O)(C=O)[C@H]2O[C@@H]2O[C@@H](CO)[C@H](O)[C@@H](O)[C@@H]2NC)[C@@H](N/C(N)=N\[H])[C@@H]1O` [STREPTOMYCIN], for which the IC50 result (in test [1]; in [2]; in [3]; on Substance-K receptor (cho); in test [4]; in test [5]) was “Not Active” throughout. Moreover, the IC50 entry in test [6], in [7] and in test [8] was “Not Active” throughout. For the same molecule, the inhibitory constant (Ki) result in [2], in [3], in [5] and in test [6] was “Not Active” each time.

Regarding `COc1cc(NS(=O)(=O)c2ccc(N)cc2)nc(OC)n1` [SULFADIMETHOXINE], the IC50 entry (in test [1]; in test [2]; in test [3]; against Substance-K receptor (cho); in test [4]; in test [5]) was “Not Active” throughout. For the same molecule, the IC50 result in test [6], in test [7] and in [8] was “Not Active” each time. Further, the Ki result in [2], in [3], in test [5] and in test [6] was “Not Active” throughout.

On to `Cc1cc(C)nc(NS(=O)(=O)c2ccc(N)cc2)n1` [SULFAMETHAZINE], for which the half-maximal inhibitory concentration (IC50) result (in test [1]; in test [2]; in test [3]; on Substance-K receptor (cho); in test [4]; in test [5]) was “Not Active” each time. Also, the concentration for half-maximal inhibition (IC50) result in [6], in [7] and in test [8] was “Not Active” each time. For the same molecule, the inhibitory constant (Ki) result in test [2], in test [3], in test [5] and in test [6] was “Not Active” in each case.

As to `C[C@]1(Cn2ccnn2)[C@H](C(=O)O)N2C(=O)C[C@H]2S1(=O)=O` [TAZOBACTAM], the half-inhibitory concentration (IC50) entry (in test [1]; in [2]; in test [3]; against Substance-K receptor (cho); in test [4]; in test [5]) was “Not Active” throughout. For the same molecule, the IC50 result in test [6], in test [7] and in [8] was “Not Active” in each case. Also, the Ki result in test [2], in test [3], in test [5] and in [6] was “Not Active” throughout.
